For 115 molecules, outcome results are on record in PubChem BioAssay AID1189 (EPA DSSTox, 2008).

Activity calls are given as the source filed them.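 The calls were made as follows: active = a tumor-causing dose value with its tumor site reported for any sex and species group of a rodent or other animal cancer study; inconclusive = only studies judged inadequate by the national testing program; inactive = tested in at least one study, none positive.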

The data set in a line: DSSTox (CPDBAS) Carcinogenic Potency Database Summary SingleCellCall Results. The note with it: animal chronic carcinogenicity bioassays, CPDB summary call. The gist of the method:
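Literature-derived summary: each substance receives an overall carcinogenic/non-carcinogenic category drawn from long-term bioassays in rats, mice, hamsters, dogs or primates, using the most positive sex-species experiment and minimal evidence criteria.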
As to `CCC(C(=O)NC(N)=O)c1ccccc1` (stereo not given), the outcome was inactive. For the molecule `C=CCc1ccc2c(c1)OCO2`, the result was active. The same measure for `O=C(O)CCCC/C=C(\c1ccccc1)c1cccnc1`: “inactive; active”; for `O=C(O)c1ccc(N=Nc2ccc(O)c(C(=O)O)c2)cc1`: “inactive”. The same measure for `O=[N+]([O-])c1ccc2c(c1)Cc1ccccc1-2`: “active”.

In the case of `CCN(C)N=O`, the result was active. The same measure for `CN(C)/N=N/c1nc[nH]c1C(N)=O`: “active”; for `C=CCc1ccc(O)c(OC)c1`: “inactive”. The same measure for `C[C@]12CCC(=O)C=C1CC[C@@H]1[C@@H]2[C@@H](O)C[C@@]2(C)[C@H]1CC[C@]2(O)C(=O)CO`: “inactive”; for `Nc1ccc2c(c1)oc1ccccc12`: “active”; for `CN(C)C=O`: “inactive; active”. Under `Nc1ccc(N)cc1` stands “inactive”.

For the molecule `O=[N+]([O-])c1ccc(-c2nc(NCCO)c3ccccc3n2)s1`, the result was active. Under `FC(F)(F)C(Cl)Cl` stands “active”; under `NC(=O)N(CCc1ccccc1)N=O`, “active”. Under `Clc1ccccc1` stands “active; inactive”; under `NCCCCCCCCCCC(=O)O`, “active”; under `C=Cc1ccc(C)cc1`, “inactive”. The same measure for `CN(N=O)C(=O)NCCC[C@H](N)C(=O)O`: “active”. Take `Cc1cc(N)ccc1N`: the outcome was inactive. Under `CC(O)CCl` (stereo not given) stands “inactive; active”; under `Oc1ccc(Cl)cc1Cc1ccccc1`, “active”; under `Cc1cn([C@H]2C[C@H](N=[N+]=[N-])[C@@H](CO)O2)c(=O)[nH]c1=O`, “active”.

As to `O=S(=O)(O)NC1CCCCC1`, the outcome was active.

On to `CCCCCCCCS(=O)C(C)Cc1ccc2c(c1)OCO2` (stereo not given), for which the outcome was active. The same measure for `Nc1nc(-c2ccc([N+](=O)[O-])o2)cs1`: “active”; for `CC(=O)NNc1ccc(CO)cc1`: “active”. Under `CCSCC[C@H](N)C(=O)O` stands “active; inactive”. Under `C=CCNNCC=C` stands “active; inactive”; under `NC(=S)NNC(N)=S`, “inactive”; under `CCC(Br)(CC)C(=O)NC(N)=O`, “inactive”. As for `O=[N+]([O-])c1ccc(O)c([N+](=O)[O-])c1`, the result was inactive. Regarding `C=C1C(CCl)(CCl)C2(Cl)C(Cl)C(Cl)C1(Cl)C2(Cl)Cl` (stereo not given), the outcome is “active; inactive”.

Turning to `C=CC(=O)O`, the outcome is “inactive; active”. With `Oc1ccc2c(c1)OCO2`, the outcome is “active; inactive”. `CCCc1cc(=O)[nH]c(=S)[nH]1`: the result was active.

As for `CC(I)C1OCC(CO)O1` (stereo not given), the outcome was active. The same measure for `O=C(O)Cc1cccc2ccccc12`: “inactive; active”; for `O.O.O.O.O.O.O.O=S(=O)([O-])[O-].[Co+2]`: “active”. Under `CC(=O)CN(C)N=O` stands “active”; under `Oc1ccc(OCc2ccccc2)cc1`, “inactive; active”. `COc1ccc(CN(CCN(C)C)c2ccccn2)cc1`: the outcome was “active; inactive”. Under `c1ccc2c(c1)[nH]c1cnccc12` stands “inactive”.

As to `O=CCCCC=O`, the outcome is “inactive; active”.

For the molecule `C[C@]12C/C(=C/O)C(=O)C[C@@H]1CC[C@@H]1[C@@H]2CC[C@@]2(C)[C@H]1CC[C@]2(C)O`, the outcome was active. The same measure for `CC(Oc1c(Cl)cccc1Cl)C1=NCCN1` (stereo not given): “inactive”; for `CCC[N+](=O)[O-]`: “inactive”; for `Cc1cccc(Nc2cc(Cl)nc(SCC(=O)O)n2)c1C`: “active; inactive”. Under `O=S(=O)(c1ccc(Cl)cc1)c1cc(Cl)c(Cl)cc1Cl` stands “inactive”; under `Cc1ccc2c(-c3ccccc3)nc(=O)n(C(C)C)c2c1`, “inactive”; under `CCN(CC(F)(F)F)N=O`, “active”. The same measure for `O=NN1CSCSC1`: “inactive”; for `O=C(OOC(=O)c1ccccc1)c1ccccc1`: “inactive”. Turning to `CCC[C@@H]1O[C@@H]2C[C@H]3[C@@H]4CCC5=CC(=O)C=C[C@]5(C)[C@H]4[C@@H](O)C[C@]3(C)[C@]2(C(=O)CO)O1`, the outcome is “active; inactive”. Under `Cc1ccc2c(c1)C(N1CCN(C)CC1)=Nc1ccccc1S2` stands “inactive”. Under `O=NN1CCC(=O)NC1=O` stands “active”. The same measure for `NS(=O)(=O)c1cc2c(cc1Cl)NCNS2(=O)=O`: “inactive; active”; for `CN(C)[C@@H]1C(=O)C(C(N)=O)=C(O)[C@@]2(O)C(=O)C3=C(O)c4c(O)cccc4[C@@](C)(O)[C@H]3[C@H](O)[C@@H]12`: “inactive; active”. Consider `c1ccc2sc(SN3CCOCC3)nc2c1`, for which the outcome was inactive. For the molecule `ClCOCCCCCCOCCl`, the outcome was inactive. Under `Nc1ccc([N+](=O)[O-])cc1O` stands “active”; under `C=C(Cl)Cl`, “active”; under `O=Cc1ccco1`, “active; inactive”. The same measure for `CCN(CC)C(C)=O`: “active”; for `F`: “inactive”. Take `Nc1cccc2ccccc12`: the outcome was active. The same measure for `COc1cc2c(c3oc4cccc(O)c4c(=O)c13)C1C=COC1O2` (stereo not given): “active; inactive”; for `Brc1cc(-c2ccc(Br)c(Br)c2Br)cc(Br)c1Br`: “inactive; active”; for `CN(C)c1ccc(C(=N)c2ccc(N(C)C)cc2)cc1`: “active”. Under `C=C1CC[C@H](O)C/C1=C/C=C1\CCC[C@]2(C)[C@@H]([C@H](C)CC[C@@H](O)C(C)(C)O)CC[C@@H]12` stands “inactive; active”.

As to `CC(=O)Nc1ccc(O)cc1`, the outcome is “active; inactive”. The same measure for `COS(C)(=O)=O`: “active; inactive”.

With `CCCCN(CCCC)C(=S)[S-].CCCCN(CCCC)C(=S)[S-].[Ni+2]`, the outcome was “inactive; active”. Under `Clc1ccc(Sc2cc(Cl)c(Cl)cc2Cl)cc1` stands “inactive”. The same measure for `C=CN1CCCC1=O`: “active; inactive”; for `C[N+](=O)[O-]`: “active”; for `O=C(O)COc1ccc(Cl)cc1Cl`: “inactive”. Under `C/C=C/C=C/C=O` stands “active”.

As for `CCN(N=O)C(N)=O`, the outcome is “active; inactive”.

For `CC(C)(OCc1ccc(-c2ccc(Cl)cc2)cc1)C(=O)O`, the result was active. The same measure for `C=CCNN`: “active”. With `Cc1ccc(N=Nc2c(O)ccc3ccccc23)c([N+](=O)[O-])c1`, the outcome was active. Under `CO[C@@]12[C@H](COC(N)=O)C3=C(C(=O)C(C)=C(N)C3=O)N1C[C@@H]1N[C@@H]12` stands “active”. The same measure for `Nc1ccc(O)c([N+](=O)[O-])c1`: “active”. Under `O=NN1C[C@H](O)C[C@H]1C(=O)O` stands “inactive”; under `CC1=NN(c2ccccc2)C(=O)C1`, “inactive”. Turning to `CC/C=C(/CC)[N+](=O)[O-]`, the outcome was active. Under `CN(CC(O)CO)N=O` (stereo not given) stands “active”; under `CC(O)CN(N=O)C(=O)NCCCl` (stereo not given), “active”; under `COc1cc(S(C)=O)ccc1-c1nc2ccncc2[nH]1` (stereo not given), “active”.

`Oc1c(Cl)cc(Cl)c(Cl)c1Cc1c(O)c(Cl)cc(Cl)c1Cl`: the outcome was inactive.

As for `C/C1=C\C=C(\C(C)C)[C@@H](O)C/C(C)=C/CC/C(C)=C/CC1`, the result was inactive. Regarding `COc1ccc(N)cc1`, the result was inactive.

With `Cc1ccccc1N=O`, the outcome was active.

Regarding `IC(I)I`, the outcome was inactive. For `CC(=O)Oc1ccccc1C(=O)O`, the outcome was inactive.

Turning to `Nc1cc([N+](=O)[O-])ccc1C(=O)O`, the outcome was inactive. Under `CCN(CC)C(=S)S` stands “inactive; active”; under `CCSC[C@H](N)C(=O)O`, “inactive”. Under `C=CC#N` stands “active”; under `Cc1cc2c(nc1N)[nH]c1ccccc12`, “active”; under `COP(=S)(OC)Oc1ccc(SC)c(C)c1`, “inactive”. The same measure for `O=C(O)c1cc(N=Nc2ccc(S(=O)(=O)Nc3ccccn3)cc2)ccc1O`: “active”; for `NC(=O)N(CCO)N=O`: “active; inactive”.

With `CCC[CH2][Sn]([CH2]CCC)([O]C(C)=O)[O]C(C)=O`, the result was inactive. Under `NC(=S)NNS(=O)(=O)c1ccccc1` stands “inactive”. Under `S=C1NCCN1` stands “active; inactive”; under `CC1SC(C)N(N=O)C(C)S1` (stereo not given), “active”. `O=C(O)c1nn(Cc2ccc(Cl)cc2Cl)c2ccccc12`: the outcome was inactive. Under `COc1c2occc2cc2ccc(=O)oc12` stands “active”. With `O=[N+]([O-])c1ccc(-c2nc(N(CCO)CCO)c3ccccc3n2)s1`, the outcome is “active; inactive”. The same measure for `CC(=O)OCc1ccccc1`: “active; inactive”. Under `CCCCCCc1ccc(O)cc1O` stands “inactive”; under `ClCc1cccnc1`, “active”. As for `C=C1C[C@@]23CC[C@H]4[C@@](C)(CCC[C@@]4(C)C(=O)O[C@@H]4O[C@H](CO)[C@@H](O)[C@H](O)[C@H]4O)[C@@H]2CC[C@]1(O[C@@H]1O[C@H](CO)[C@@H](O)[C@H](O)[C@H]1O[C@@H]1O[C@H](CO)[C@@H](O)[C@H](O)[C@H]1O)C3`, the result was inactive.
